Reference: patent US11000033B2, “Ketone or oxime compound, and herbicide” (NISSAN CHEMICAL CORPORATION, priority 2014, dated 2021)

Tests used:
Format in all cases: in vivo
beet [1] = assay: Test Example 5: effect on crop by foliage application, plastic box (symbol f); conditions: 320 g/ha, 3 weeks after application
Method in brief: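 Crop seed is sown alongside grass and broadleaf weed species in spots in sterilized diluvial soil, then covered to a depth of about 1.5 cm. Plants grow in a greenhouse kept at 25° C. to 30° C.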

[2] = test system: Echinochloa oryzacola Vasing.; assay: Test Example 2: herbicidal activity, application during weed generation in submerged conditions (symbol A); conditions: Table 23; application herbicide amount 320 g/ha; grade 0-5 by criteria of Test Example 1
Method in brief: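 Weeds emerging under flooded conditions were treated with compound formulated as an emulsion and diluted with water to the intended herbicide amount, poured onto the surface of 4 cm standing water. Seeds had been co-sown in alluvial soil; plants grew at 25° C. to 30° C. and were assessed after 3 weeks.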

Galium spurium = assay: Test Example 5: herbicidal effect by foliage application, plastic box (symbol Q); conditions: 320 g/ha, 3 weeks after application
Method in brief: (§1)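 Emulsion formulation, diluted with water to the intended rate, was applied uniformly to leaves by small sprayer. Recipients were 14-day greenhouse-grown seedlings (25° C. to 30° C.). Assessment followed at 3 weeks.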

Setaria viridis = assay: Test Example 5: herbicidal effect by foliage application, plastic box (symbol G); conditions: 320 g/ha, 3 weeks after application
Method in brief: as §1

rice = assay: Test Example 4: effect on crop by soil treatment (symbol b); conditions: for b: directly sowed rice plant, effect grade on crop: 320 g/ha
Method in brief: (§2)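 Soil-treatment setup: crop and weed seeds were spot-sown into sterilized diluvial soil, then buried beneath approximately 1.5 cm of it, and the boxes were housed in a 25–30° C. greenhouse.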

Digitaria ciliaris [3] = assay: Test Example 4: herbicidal effect by soil treatment (symbol F); conditions: for F: Digitaria ciliaris, herbicidal effect grade: 320 g/ha
Method in brief: (§3)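 Seeds were sown in sterilized diluvial soil, covered with about 1.5 cm of soil, and the soil surface was sprayed with a water-diluted emulsion of the compound at a predetermined rate. Plants grew in a greenhouse at 25° C. to 30° C.; effects were scored visually 3 weeks after application.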

[4] = test system: directly sowed rice plant; assay: Test Example 3: effect on crop by foliage application, Wagner pot (symbol b); conditions: application herbicide amount 320 g/ha
Method in brief: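 Steps: fill a 1/10000-are Wagner pot with alluvial soil; add water and mix to submerge at 0.1–0.5 cm depth; sow rice plus Echinochloa crus-galli var. crus-galli, Leptochloa chinensis and Cyperus difformis; grow in a 25–30 °C greenhouse.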

Alopecurus myosuroides = assay: Test Example 5: herbicidal effect by foliage application, plastic box (symbol J); conditions: 320 g/ha, 3 weeks after application
Method in brief: as §1

Cyperus difformis = assay: Test Example 3: herbicidal effect by foliage application, Wagner pot (symbol E); conditions: application herbicide amount 320 g/ha
Method in brief: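 Alluvial soil was flooded to a depth of 0.1–0.5 cm, seeded with the weeds and rice, and kept in a greenhouse at 25–30 °C. After 14 days of growth, the foliage received a small-sprayer application of emulsion diluted to the intended rate; injury was rated at 3 weeks.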

beet [5] = assay: Test Example 4: effect on crop by soil treatment (symbol f); conditions: for f: beet, effect grade on crop: 320 g/ha
Method in brief: as §2

Digitaria ciliaris [6] = assay: Test Example 5: herbicidal effect by foliage application, plastic box (symbol F); conditions: 320 g/ha, 3 weeks after application
Method in brief: as §1

corn = assay: Test Example 4: effect on crop by soil treatment (symbol c); conditions: for c: corn, effect grade on crop: 320 g/ha
Method in brief: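 Crop seed is sown in spots together with several weed species in a box of sterilized diluvial soil. It is covered by about 1.5 cm of soil and kept in a greenhouse held between 25° C. and 30° C.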

Lolium multiflorum Lam. = assay: Test Example 4: herbicidal effect by soil treatment (symbol K); conditions: for K: Lolium multiflorum Lam., herbicidal effect grade: 320 g/ha
Method in brief: as §3

Abutilon theophrasti = assay: Test Example 4: herbicidal effect by soil treatment (symbol M); conditions: for M: Abutilon theophrasti, herbicidal effect grade: 320 g/ha
Method in brief: as §3

Veronica persica = assay: Test Example 5: herbicidal effect by foliage application, plastic box (symbol R); conditions: 320 g/ha, 3 weeks after application
Method in brief: as §1

Apera spica-venti = assay: Test Example 5: herbicidal effect by foliage application, plastic box (symbol L); conditions: 320 g/ha, 3 weeks after application
Method in brief: as §1

wheat = assay: Test Example 4: effect on crop by soil treatment (symbol e); conditions: for e: wheat, effect grade on crop: 320 g/ha
Method in brief: as §2

[7] = test system: Echinochloa crus-galli var. crus-galli; assay: Test Example 4: herbicidal effect by soil treatment (symbol H); conditions: for H: Echinochloa crus-galli var. crus-galli, herbicidal effect grade: 320 g/ha
Method in brief: as §3

[8] = application herbicide amount 320 g/ha

SMILES	f: beet, effect on crop grade (beet [1])	Herbicidal effect grade, A: Echinochloa oryzacola Vasing. [2]	Q: Galium spurium, herbicidal effect grade (Galium spurium)	G: Setaria viridis, herbicidal effect grade (Setaria viridis)	effect on crop b (directly sowed rice plant), grade 0-5 [4]	J: Alopecurus myosuroides, herbicidal effect grade (Alopecurus myosuroides)	herbicidal effect on E, grade 0-5 (Cyperus difformis)	F: Digitaria ciliaris, herbicidal effect grade (Digitaria ciliaris [6])	R: Veronica persica, herbicidal effect grade (Veronica persica)	L: Apera spica-venti, herbicidal effect grade (Apera spica-venti)	f: beet, effect on crop (criteria 0-5) (beet [1])	Q: Galium spurium, herbicidal effect (criteria 0-5) (Galium spurium)	G: Setaria viridis, herbicidal effect (criteria 0-5) (Setaria viridis)	b: directly sowed rice plant, effect grade on crop (rice)	F: Digitaria ciliaris, herbicidal effect grade (Digitaria ciliaris [3])	J: Alopecurus myosuroides, herbicidal effect (criteria 0-5) (Alopecurus myosuroides)	f: beet, effect grade on crop (beet [5])	F: Digitaria ciliaris, herbicidal effect (criteria 0-5) (Digitaria ciliaris [6])	c: corn, effect grade on crop (corn)	K: Lolium multiflorum Lam., herbicidal effect grade (Lolium multiflorum Lam.)	also measured
CSCCON=C(C)CC1CC(O)=C(c2c(C)cc(C)cc2C)C1=O (stereo not drawn) [1-029]	0 (Herbicidal ratio of 5% or lower (almost no effect))	4 (Herbicidal ratio of 70% or higher and lower than 90%)	3 (Herbicidal ratio of 40% or higher and lower than 70%)	5 (Herbicidal ratio of 90% or more (almost completely withered))	5 (Herbicidal ratio of 90% or more (almost completely withered))	5 (Herbicidal ratio of 90% or more (almost completely withered))	4 (Herbicidal ratio of 70% or higher and lower than 90%)	5 (Herbicidal ratio of 90% or more (almost completely withered))	1 (Herbicidal ratio of 5% or higher and lower than 20%)	5 (Herbicidal ratio of 90% or more (almost completely withered))											b (directly sowed rice plant) effect on crop grade (rice; [8]): 5 (Herbicidal ratio of 90% or more (almost completely withered)); F (Digitaria ciliaris) herbicidal effect grade (Digitaria ciliaris [3]; [8]): 5 (Herbicidal ratio of 90% or more (almost completely withered)); f (beet) effect on crop grade (beet [5]; [8]): 0 (Herbicidal ratio of 5% or lower (almost no effect)); c (corn) effect on crop grade (corn; [8]): 0 (Herbicidal ratio of 5% or lower (almost no effect)); K (Lolium multiflorum Lam.) herbicidal effect grade (Lolium multiflorum Lam.; [8]): 5 (Herbicidal ratio of 90% or more (almost completely withered)); M (Abutilon theophrasti) herbicidal effect grade (Abutilon theophrasti; [8]): 0 (Herbicidal ratio of 5% or lower (almost no effect)); e (wheat) effect on crop grade (wheat; [8]): 0 (Herbicidal ratio of 5% or lower (almost no effect)); H (Echinochloa crus-galli var. crus-galli) herbicidal effect grade [7, 8]: 5 (Herbicidal ratio of 90% or more (almost completely withered))
CON=C(C)CC1CC(OC(=O)C2=C(Br)CCC2)=C(c2c(C)cc(C)cc2C)C1=O (stereo not drawn) [1-089]		5 (Herbicidal ratio of 90% or more (almost completely withered))			5 (Herbicidal ratio of 90% or more (almost completely withered))		5 (Herbicidal ratio of 90% or more (almost completely withered))				0 (Herbicidal ratio of 5% or lower (almost no effect))	0 (Herbicidal ratio of 5% or lower (almost no effect))	5 (Herbicidal ratio of 90% or more (almost completely withered))	5 (Herbicidal ratio of 90% or more (almost completely withered))	5 (Herbicidal ratio of 90% or more (almost completely withered))	5 (Herbicidal ratio of 90% or more (almost completely withered))	0 (Herbicidal ratio of 5% or lower (almost no effect))	5 (Herbicidal ratio of 90% or more (almost completely withered))	5 (Herbicidal ratio of 90% or more (almost completely withered))	5 (Herbicidal ratio of 90% or more (almost completely withered))	M: Abutilon theophrasti, herbicidal effect grade (Abutilon theophrasti): 2 (Herbicidal ratio of 20% or higher and lower than 40%); R: Veronica persica, herbicidal effect (criteria 0-5) (Veronica persica): 3 (Herbicidal ratio of 40% or higher and lower than 70%); L: Apera spica-venti, herbicidal effect (criteria 0-5) (Apera spica-venti): 5 (Herbicidal ratio of 90% or more (almost completely withered)); e: wheat, effect grade on crop (wheat): 1 (Herbicidal ratio of 5% or higher and lower than 20%); H: Echinochloa crus-galli var. crus-galli, herbicidal effect grade [7]: 5 (Herbicidal ratio of 90% or more (almost completely withered))
CON=C(C)CC1CC(OC(=O)COc2ccc3ccccc3c2)=C(c2c(C)cc(C)cc2C)C1=O (stereo not drawn) [1-083]		5 (Herbicidal ratio of 90% or more (almost completely withered))			3 (Herbicidal ratio of 40% or higher and lower than 70%)		5 (Herbicidal ratio of 90% or more (almost completely withered))				0 (Herbicidal ratio of 5% or lower (almost no effect))	0 (Herbicidal ratio of 5% or lower (almost no effect))	5 (Herbicidal ratio of 90% or more (almost completely withered))	5 (Herbicidal ratio of 90% or more (almost completely withered))	5 (Herbicidal ratio of 90% or more (almost completely withered))	5 (Herbicidal ratio of 90% or more (almost completely withered))	0 (Herbicidal ratio of 5% or lower (almost no effect))	5 (Herbicidal ratio of 90% or more (almost completely withered))	4 (Herbicidal ratio of 70% or higher and lower than 90%)	5 (Herbicidal ratio of 90% or more (almost completely withered))	M: Abutilon theophrasti, herbicidal effect grade (Abutilon theophrasti): 4 (Herbicidal ratio of 70% or higher and lower than 90%); R: Veronica persica, herbicidal effect (criteria 0-5) (Veronica persica): 0 (Herbicidal ratio of 5% or lower (almost no effect)); L: Apera spica-venti, herbicidal effect (criteria 0-5) (Apera spica-venti): 5 (Herbicidal ratio of 90% or more (almost completely withered)); e: wheat, effect grade on crop (wheat): 4 (Herbicidal ratio of 70% or higher and lower than 90%); H: Echinochloa crus-galli var. crus-galli, herbicidal effect grade [7]: 5 (Herbicidal ratio of 90% or more (almost completely withered))
CON=C(CC1CC(O)=C(c2c(C)cc(C#C[Si](C)(C)C)cc2C)C1=O)C(C)C (stereo not drawn) [9-005]	0 (Herbicidal ratio of 5% or lower (almost no effect))	3 (Herbicidal ratio of 40% or higher and lower than 70%)	0 (Herbicidal ratio of 5% or lower (almost no effect))	4 (Herbicidal ratio of 70% or higher and lower than 90%)		4 (Herbicidal ratio of 70% or higher and lower than 90%)		4 (Herbicidal ratio of 70% or higher and lower than 90%)	0 (Herbicidal ratio of 5% or lower (almost no effect))	5 (Herbicidal ratio of 90% or more (almost completely withered))											Effect on crop grade, b: directly sowed rice plant (rice; [8]): 1 (Herbicidal ratio of 5% or higher and lower than 20%); Herbicidal effect grade, F: Digitaria ciliaris (Digitaria ciliaris [3]; [8]): 1 (Herbicidal ratio of 5% or higher and lower than 20%); b (directly sowed rice plant) effect on crop grade ([4]; Table 24): 4 (Herbicidal ratio of 70% or higher and lower than 90%); E herbicidal effect grade (Cyperus difformis; Table 24): 2 (Herbicidal ratio of 20% or higher and lower than 40%); Effect on crop grade, f: beet (beet [5]; [8]): 0 (Herbicidal ratio of 5% or lower (almost no effect)); Effect on crop grade, c: corn (corn; [8]): 0 (Herbicidal ratio of 5% or lower (almost no effect)); Herbicidal effect grade, K: Lolium multiflorum Lam. (Lolium multiflorum Lam.; [8]): 4 (Herbicidal ratio of 70% or higher and lower than 90%); Herbicidal effect grade, M: Abutilon theophrasti (Abutilon theophrasti; [8]): 0 (Herbicidal ratio of 5% or lower (almost no effect)); Effect on crop grade, e: wheat (wheat; [8]): 0 (Herbicidal ratio of 5% or lower (almost no effect)); Herbicidal effect grade, H: Echinochloa crus-galli var. crus-galli [7, 8]: 0 (Herbicidal ratio of 5% or lower (almost no effect))
